Assay results published in patent publication US20080057136A1, “Disinfecting Composition and Methods of Making and Using Same” (priority 2003, published 2008).
Values after ≈ are worked out from the molar mass of the structure shown. Values joined by “and” are separate entries in the source; they are usually repeats but may differ in a detail not shown here. Equal entries are not always repeated. Blank lines part the entries; values can stand above or below the molecule they belong to.

Columns and labels:
[1] = tested on: Trichophyton rubrum (ATCC 28188); experiment: Time-Kill test (Example 9); type: cell-based; details: Study 506-103
T. rubrum ATCC 28188 [2] = experiment: NCCLS broth microdilution MIC and MFC (Example 10); type: cell-based, Trichophyton rubrum; details: Example 10; for MIC: 80% reduction in growth, amphotericin B complete inhibition; for MFC: 99.9% inhibition of growth; for fungicidal activity: MFC within 1 doubling dilution of the MIC
C. albicans ATCC 10231 [3] = experiment: NCCLS broth microdilution MIC and MFC (Example 11); type: cell-based, Candida albicans; details: for MIC: amphotericin B complete inhibition, terbinafine 50%/90%; for fungicidal activity: MFC within 1 doubling dilution of the MIC
C. albicans ATCC 10231 [4] = experiment: NCCLS broth microdilution MIC and MFC (Example 10); type: cell-based, Candida albicans; details: for MIC: amphotericin B complete inhibition; for fungicidal activity: MFC within 1 doubling dilution of the MIC
T. rubrum ATCC 28188 [5] = experiment: NCCLS broth microdilution MIC and MFC (Example 11); type: cell-based, Trichophyton rubrum; details: Example 11; for MIC: 80% reduction in growth, amphotericin B complete inhibition; for fungicidal activity: MFC within 1 doubling dilution of the MIC
T. rubrum = experiment: MIC and MBC determination by doubling dilutions (Study 509-102); type: cell-based, Trichophyton rubrum
Description: Table 2 below indicates the stock dilutions for each test agent, and a breakdown of the resulting concentrations for each of the doubling dilutions performed is summarized in Table 3.
From the stock dilutions, an initial 1:10 dilution was made (representing tube 1), followed by doubling dilutions (tubes 2-12), as detailed in Table 3.

[6] = tested on: Candida albicans (ATCC 10231); experiment: Time-Kill test (Example 9); type: cell-based; details: Study 506-103
[7] = Study 509-102, Inoculum Counts: 3.6 × 10^8
[8] = Trichophyton rubrum, ATCC28188, read-out: MIC
[9] = Trichophyton rubrum, ATCC28188, read-out: MFC
[10] = Candida albicans, ATCC10231, 80% reduction in growth, read-out: MIC

MIC (T. rubrum ATCC 28188 [2]): 0.25 µg/mL (≈ 0.271 µM)
MIC (C. albicans ATCC 10231 [3]; 80% reduction in growth): 0.25 µg/mL (≈ 0.271 µM)
MIC (C. albicans ATCC 10231 [4]; 80% reduction in growth): 0.12 µg/mL (≈ 0.13 µM)
MIC (T. rubrum ATCC 28188 [5]): 0.25 µg/mL (≈ 0.271 µM)
MIC (ppm) (T. rubrum; [7]): >0.25 ppm
MIC Against T. rubrum (T. rubrum; Table 23, row head prints μg/mL): >0.25 µg/mL
SMILES: C[C@@H]1[C@H](O)[C@@H](C)/C=C/C=C/C=C/C=C/C=C/C=C/C=C/[C@H](O[C@@H]2O[C@H](C)[C@@H](O)[C@H](N)[C@@H]2O)C[C@@H]2O[C@](O)(C[C@@H](O)C[C@@H](O)[C@H](O)CC[C@@H](O)C[C@@H](O)CC(=O)O[C@H]1C)C[C@H](O)[C@H]2C(=O)O [Amphotericin B]
Log10 Reduction ([1]; 30 sec. contact): 1.0 Log10
CFUs recovered per milliliter of T. rubrum culture ([1]; 30 sec. contact, initial 1.0 × 10^6 CFU/ml, Amphotericin B 2.5 mg/L): 1.0 × 10^5 CFU/ml and 1.1 × 10^5 CFU/ml
CFUs recovered per milliliter of T. rubrum culture ([1]; 60 sec. contact): 6.9 × 10^4 CFU/ml and 8.7 × 10^4 CFU/ml
Log10 Reduction ([1]; 60 sec. contact): 1.2 Log10 and 1.1 Log10
Log10 Reduction ([1]; 10 min. contact): 1.0 Log10
MFC (T. rubrum ATCC 28188 [2]): 0.5 µg/mL (≈ 0.541 µM)
fungicidal activity (T. rubrum ATCC 28188 [2]): Fungicidal activity was observed
MFC (C. albicans ATCC 10231 [3]): 0.5 µg/mL (≈ 0.541 µM)
fungicidal activity (C. albicans ATCC 10231 [3]): Fungicidal activity
MFC (C. albicans ATCC 10231 [4]; 99.9% inhibition of growth): 0.12 µg/mL (≈ 0.13 µM)
fungicidal activity (C. albicans ATCC 10231 [4]): Fungal activity
MFC (T. rubrum ATCC 28188 [5]): 0.5 µg/mL (≈ 0.541 µM)
fungicidal activity (T. rubrum ATCC 28188 [5]): Fungicidal activity was observed
MBC (ppm) (T. rubrum; [7]): >0.25 ppm

MIC (T. rubrum ATCC 28188 [2]; [8]): 2 µg/mL (≈ 6.53 µM)
MIC (C. albicans ATCC 10231 [3]; [10]): 0.5 µg/mL (≈ 1.63 µM)
MIC (C. albicans ATCC 10231 [4]; [10]): 0.5 µg/mL (≈ 1.63 µM)
MIC (T. rubrum ATCC 28188 [5]; [8]): 2 µg/mL (≈ 6.53 µM)
SMILES: OC(Cn1cncn1)(Cn1cncn1)c1ccc(F)cc1F [Fluconazole]
Log10 Reduction ([6]; 30 sec. contact): <1.0 Log10
CFUs recovered per milliliter of C. albicans culture ([6]; 30 sec. contact, initial 3.0 × 10^7 CFU/ml, Fluconazole 2 mg/ml): 3.0 × 10^6 CFU/ml
CFUs recovered per milliliter of C. albicans culture ([6]; 60 sec. contact): 3.0 × 10^6 CFU/ml
Log10 Reduction ([6]; 60 sec. contact): <1.0 Log10
CFUs recovered per milliliter of C. albicans culture ([6]; 5 min. contact): 3.0 × 10^6 CFU/ml
Log10 Reduction ([6]; 5 min. contact): <1.0 Log10
fungicidal activity (T. rubrum ATCC 28188 [2]): did not demonstrate fungicidal activity
MFC (T. rubrum ATCC 28188 [2]; [9]): 8 µg/mL (≈ 26.1 µM)
MFC (C. albicans ATCC 10231 [3]; Candida albicans, ATCC10231, read-out: MFC): 1 µg/mL (≈ 3.27 µM)
fungicidal activity (C. albicans ATCC 10231 [3]): Fungicidal activity
MFC (C. albicans ATCC 10231 [4]; Candida albicans, ATCC10231, 99.9% inhibition of growth, read-out: MFC): 2 µg/mL (≈ 6.53 µM)
fungicidal activity (C. albicans ATCC 10231 [4]): not considered fungicidal
fungicidal activity (T. rubrum ATCC 28188 [5]): did not demonstrate fungicidal activity
MFC (T. rubrum ATCC 28188 [5]; [9]): 64 µg/mL (≈ 209 µM)
